Reference: patent US20240110150A1, “PHOTON UPCONVERSION BIOMATERIALS, MICELLE AND NANOPARTICLES FOR THREE-DIMENSIONAL (3D) OPTOGENETICS” (THE TRUESTEES OF COLUMBIA UNIVERSITY IN THE CITY OF NEW YORK, priority 2020, published 2024)

System: HeLa cells
Assay: Cell viability assay (Cell-Titer-Glo) of emulsions, one hour
Type: cell-based
Method: HeLa cells (obtained from American Type Culture Collection) were maintained in Dulbecco's Modified Eagle's Medium (Gibco) supplemented with 10% fetal bovine serum (Invitrogen) at 37° C. in a humidified 5% CO2 atmosphere. For viability assays testing biocompatibility of the emulsions, cells were plated in a 96-well white opaque plate format at 40,000 cells per well, allowed to seed overnight, and then treated with emulsions at indicated concentrations for one hour. These viability assays utilized the Cell-Titer-Glo 2.0 reagent (Promega, G9243) according to the manufacturer's instructions. Briefly, 100 μL of Cell-Titer-Glo 2.0 reagent, diluted at 1:1 with culture media, was added to each well containing 100 μl emultion-particles-containing media. Plates were gently agitated for 2 minutes and incubated at room temperature for 10 minutes in the dark to promote adequate mixing. Luminescence was subsequently measured using a Victor 5 plate reader (Perkin Elmer). The intensity of luminescence was normalized to that of cells with no emulsion particles added.

Substance	biocompatibility of emulsion surfactants
Tween 80	only Pluronic F127 was found to be biocompatible and nontoxic
Pluronic F127	biocompatible and nontoxic to the cells
